For 22 compounds, viability results are on record in patent US11299485B2, “Thiophene derivative and use thereof” (FUJIMOTO CO., LTD., priority 2018, dated 2022).

What all share (type): cell-based
One assay deals with MM.1S cells. Kind of assay: Human myeloma cell line MM.1S proliferation suppression test. As to conditions: MM1.S, 72 h, compound 10 μM, 3 days, WST-1 or WST-8, read-out: cell survival rate (% of control) MM.1S. How it is done: Example 51: Human Myeloma Cell Line MM.1S Proliferation Suppression Test
MM.1S cells (ATCC, CRL-2974) were suspended in 10% fetal calf serum (Thermo Fisher Scientific)-containing RPMI1640 medium (ATCC, hereinafter abbreviated as medium B), and diluted as appropriate with 0.4% trypan blue solution (Sigma-Aldrich Co. LLC.). The number of viable cells was counted with a hemocytometer (ERMA INC.). It was diluted with medium B such that the value obtained was 2×10^5 cells/mL. On the other hand, 50 μL of a solution obtained by diluting 4 mM DMSO solution of the test compound 200-fold with medium B was added to each well of a Falcon 96-well flat bottom plate (Corning Incorporated), and the above-mentioned cell suspension was dispensed at 50 μL/well (final concentration of test compound 10 μM). 50 μL of a solution obtained by diluting DMSO 200-fold with medium B was added to the control well. After culturing at 37° C. in a 5% CO2 stream for 3 days, the cell proliferation activity was measured using WST-1 (DOJINDO LABORATORIES) or WST-8 Kit (KISHIDA CHEMICAL Co., Ltd.) and according to each instruction manual attached thereto.
For orientation: Tetrazolium dyes change colour on reduction, which living cells bring about.

The next assay deals with Pfeiffer cells. In words: Human diffuse large B-cell lymphoma cell line Pfeiffer proliferation suppression test. The settings on record: 144 h, compound 10 μM, 3 days + re-plating with compound 3 days, WST-8, read-out: cell survival rate (% of control) Pfeiffer. From the text: Example 52: Human Diffuse Large B-Cell Lymphoma Cell Line Pfeiffer Proliferation Suppression Test
(§1) Pfeiffer cells (ATCC, CRL-2632) were suspended in medium B, and diluted as appropriate with 0.4% trypan blue solution (Sigma-Aldrich Co. LLC.). The number of viable cells was counted with a hemocytometer (Funakoshi Co., Ltd.). A cell suspension obtained by diluting with medium B such that the value obtained was 1.3×10^5 cells/mL was dispensed into a Falcon 96 well flat bottom plate (Corning Incorporated) at 75 μL/well, and culture was started at 37° C. under 5% CO2 stream. The next day, a solution obtained by diluting 4 mM DMSO solution of the test compound 100-fold with medium B was added by 25 μL to each well (final concentration of test compound 10 μM). 25 μL of a solution obtained by diluting DMSO 100-fold with medium B was added to the control well. After culturing at 37° C. in a 5% CO2 stream for 3 days, the cell culture medium was uniformly suspended with a multi channel pipette, 14 μL per well was transferred into another new Falcon 96 well flat bottom plate. A solution obtained by diluting 4 mM DMSO solution of the same test compound as the first time 400-fold with medium B was added by 86 μL to a total amount of 100 μL (final concentration of test compound 10 μM). After culturing at 37° C. in a 5% CO2 stream for 3 days, the cell proliferation activity was measured according to the instruction manual attached to WST-8 Kit (KISHIDA CHEMICAL Co., Ltd.).

The test system of the next assay is REC-1 cells. In words: Human mantle cell lymphoma cell line REC-1 proliferation suppression test. As to conditions: Rec1, 72 h, compound 10 μM, 3 days, WST-8, read-out: cell survival rate (% of control) REC-1. How it is done:
Example 53: Human Mantle Cell Lymphoma Cell Line REC-1 Proliferation Suppression Test
as §1, with “REC-1” for “Pfeiffer”, “CRL-3004)” for “CRL-2632)”, “cell” for “cell culture medium was uniformly suspended with a multi channel pipette, 14 μL per well was transferred into another new Falcon 96 well flat bottom plate. A solution obtained by diluting 4 mM DMSO solution of the same test compound as the first time 400-fold with medium B was added by 86 μL to a total amount of 100 μL (final concentration of test compound 10 μM). After culturing at 37° C. in a 5% CO2 stream for 3 days, the cell”

Regarding `COc1sccc1-c1cn(C2CCC(=O)NC2=O)nn1` (stereo not drawn) [compound 18, 3-[4-(2-methoxythiophen-3-yl)-1H-1,2,3-triazol-1-yl]piperidine-2,6-dione], the figures for the viability at 10 µM in the assay with MM.1S cells, in the assay on Pfeiffer cells and in the assay with REC-1 cells were 27%, 70% and 18%, respectively.
For the compound `CCCCOc1cscc1-c1cn(C2CCC(=O)NC2=O)nn1` (stereo not drawn) [compound 25, 3-[4-(4-butoxythiophen-3-yl)-1H-1,2,3-triazol-1-yl]piperidine-2,6-dione], the viability at 10 µM in the assay with MM.1S cells worked out at 69%; with Pfeiffer cells, 84%; in the assay with REC-1 cells, 57%.
In the same order, the values of `CC(=O)c1ccc(-c2cn(C3CCC(=O)NC3=O)nn2)s1` (stereo not drawn) [compound 8, 3-[4-(5-acetylthiophen-2-yl)-1H-1,2,3-triazol-1-yl]piperidine-2,6-dione] are 94%, 107% and 99%.
On the same counts, the results for `O=C1CCC(n2cc(-c3ccc(Br)s3)nn2)C(=O)N1` (stereo not drawn) [compound 12, 3-[4-(5-bromothiophen-2-yl)-1H-1,2,3-triazol-1-yl]piperidine-2,6-dione] are 74%, 94% and 77%.
On the same counts, the results for `O=C1CCC(n2cc(-c3ccc(Cl)s3)nn2)C(=O)N1` (stereo not drawn) [compound 11, 3-[4-(5-chlorothiophen-2-yl)-1H-1,2,3-triazol-1-yl]piperidine-2,6-dione] are 63%, 114% and 56%.
With `O=C1CCC(n2nnc(-c3ccsc3)c2Cl)C(=O)N1` (stereo not drawn) [compound 4, 3-[5-chloro-4-(thiophen-3-yl)-1H-1,2,3-triazol-1-yl]piperidine-2,6-dione], the viability at 10 µM in the assay with MM.1S cells stood at 87%; in the assay with Pfeiffer cells it was 98%; in the assay on REC-1 cells, 93%.
In the same order, the values of `O=C1CCC(n2cc(-c3cscc3OCc3cccnc3)nn2)C(=O)N1` (stereo not drawn) [compound 35, 3-{4-[4-(pyridin-3-ylmethoxy)thiophen-3-yl]-1H-1,2,3-triazol-1-yl}piperidine-2,6-dione] are 55%, 104% and 39%.
In the same order, the values of `O=C1CCC(n2cc(-c3cscc3OCc3ccncc3)nn2)C(=O)N1` (stereo not drawn) [compound 33, 3-{4-[4-(pyridin-4-ylmethoxy)thiophen-3-yl]-1H-1,2,3-triazol-1-yl}piperidine-2,6-dione] are 49%, 71% and 27%.
In the same order, the values of `O=C1CCC(n2nnc(-c3ccsc3)c2Br)C(=O)N1` (stereo not drawn) [compound 48, 3-[5-bromo-4-(thiophen-3-yl)-1H-1,2,3-triazol-1-yl]piperidine-2,6-dione] are 85%, 98% and 98%.
`Cl.O=C1CCC(n2cc(-c3cscc3OCc3ccc(CCN4CCOCC4)cc3)nn2)C(=O)N1` (stereo not drawn) [compound 45, 3-(4-{4-[4-(2-morpholinoethyl)benzyloxy]thiophen-3-yl}-1H-1,2,3-triazol-1-yl)piperidine-2,6-dione hydrochloride]: the viability at 10 µM with MM.1S cells is 31%; with Pfeiffer cells, 78%; with REC-1 cells, 26%.
Take `COc1cc(-c2cn(C3CCC(=O)NC3=O)nn2)cs1` (stereo not drawn) [compound 20, 3-[4-(5-methoxythiophen-3-yl)-1H-1,2,3-triazol-1-yl]piperidine-2,6-dione]: the viability at 10 µM with MM.1S cells was 35%; in the assay on Pfeiffer cells it was 81%; in the assay on REC-1 cells, 22%.
On the same counts, the results for `O=C1CCC(n2cc(-c3cscc3OCc3ccc(CN4CCOCC4)cc3)nn2)C(=O)N1` (stereo not drawn) [compound 36, 3-(4-{4-[4-(morpholinomethyl)benzyloxy]thiophen-3-yl}-1H-1,2,3-triazol-1-yl)piperidine-2,6-dione] are 16%, 34% and 2%.
In the same order, the values of `COC(=O)c1scc(-c2cn(C3CCC(=O)NC3=O)nn2)c1OC` (stereo not drawn) [compound 16, methyl 4-[1-(2,6-dioxopiperidin-3-yl)-1H-1,2,3-triazol-4-yl]-3-methoxythiophene-2-carboxylate] are 85%, 98% and 85%.
On the same counts, the results for `Cl.O=C1CCC(n2cc(-c3cscc3OCc3ccc(CN4CCCC4)cc3)nn2)C(=O)N1` (stereo not drawn) [compound 41, 3-(4-{4-[4-(pyrrolidin-1-ylmethyl)benzyloxy]thiophen-3-yl}-1H-1,2,3-triazol-1-yl)piperidine-2,6-dione hydrochloride] are 32%, 72% and 20%.
For `O=C1CCC(n2cc(-c3cc(Br)sc3Br)nn2)C(=O)N1` (stereo not drawn) [compound 13, 3-[4-(2,5-dibromothiophen-3-yl)-1H-1,2,3-triazol-1-yl]piperidine-2,6-dione], the results for the viability at 10 µM in the assay on MM.1S cells, with Pfeiffer cells and in the assay on REC-1 cells were 79%, 100% and 100%, respectively.
With `O=C1CCC(n2cc(-c3cccs3)nn2)C(=O)N1` (stereo not drawn) [compound 3, 3-[4-(thiophen-2-yl)-1H-1,2,3-triazol-1-yl]piperidine-2,6-dione], the values for the viability at 10 µM with MM.1S cells, in the assay on Pfeiffer cells and with REC-1 cells were 59%, 96% and 65%, respectively.
Take `O=C1CCC(n2cc(-c3cscc3OCc3ccccc3CN3CCOCC3)nn2)C(=O)N1` (stereo not drawn) [compound 40, 3-(4-{4-[2-(morpholinomethyl)benzyloxy]thiophen-3-yl}-1H-1,2,3-triazol-1-yl)piperidine-2,6-dione]: the viability at 10 µM in the assay with MM.1S cells is 35%; in the assay on Pfeiffer cells, 91%; in the assay on REC-1 cells it was 33%.
On the same counts, the results for `CCOc1cc(-c2cn(C3CCC(=O)NC3=O)nn2)cs1` (stereo not drawn) [compound 24, 3-[4-(5-ethoxythiophen-3-yl)-1H-1,2,3-triazol-1-yl]piperidine-2,6-dione] are 63%, 91% and 46%.
In the same order, the values of `Cc1ccc(-c2cn(C3CCC(=O)NC3=O)nn2)s1` (stereo not drawn) [compound 5, 3-[4-(5-methylthiophen-2-yl)-1H-1,2,3-triazol-1-yl]piperidine-2,6-dione] are 66%, 98% and 53%.
On the same counts, the results for `COCc1ccc(COc2cscc2-c2cn(C3CCC(=O)NC3=O)nn2)cc1` (stereo not drawn) [compound 37, 3-(4-{4-[4-(methoxymethyl)benzyloxy]thiophen-3-yl}-1H-1,2,3-triazol-1-yl)piperidine-2,6-dione] are 24%, 71% and 17%.
Regarding `Cc1cscc1-c1cn(C2CCC(=O)NC2=O)nn1` (stereo not drawn) [compound 7, 3-[4-(4-methylthiophen-3-yl)-1H-1,2,3-triazol-1-yl]piperidine-2,6-dione], the viability at 10 µM in the assay with MM.1S cells came to 57%; in the assay with Pfeiffer cells it was 101%; with REC-1 cells it was 44%.
In the same order, the values of `CCOc1cscc1-c1cn(C2CCC(=O)NC2=O)nn1` (stereo not drawn) [compound 17, 3-[4-(4-ethoxythiophen-3-yl)-1H-1,2,3-triazol-1-yl]piperidine-2,6-dione] are 32%, 72% and 23%.
